Columns and labels:
[1] = biological target: EGFR (L858R/T790M/C797S) (Homo sapiens, UniProt P00533, C797S/L858R/T790M); experiment: HotSpot radiometric kinase assay, inhibition of EGFR L858R/T790M/C797S mutant; assay type: biochemical; conditions: 33P ATP, room temperature, 120 m
Protocol: (§1) Biochemical Assays for inhibition of wild-type and mutant EGFRs
(§2) Briefly, specific kinase/substrate pairs along with required cofactors were prepared in reaction buffer; 20 mM HEPES pH 7.5, 10 mM […], 1 mM EGTA, 0.02% Brij35, 0.02 mg/ml BSA, 0.1 mM Na3VO4, 2 mM DTT, 1% DMSO. Compounds were delivered into the reaction, followed ~20 minutes later by addition of a mixture of ATP (Sigma, St. Louis MO) and ^33P ATP (Perkin Elmer, Waltham MA) to a final concentration of […]. Reactions were carried out at room temperature for 120 m, followed by spotting of the reactions onto P81 ion exchange filter paper (Whatman Inc., Piscataway, NJ). Unbound phosphate was removed by extensive washing of filters in 0.75% phosphoric acid. […] IC50 values and curve fits were obtained using Prism (GraphPad Software).

[2] = biological target: EGFR (D746-750) (Homo sapiens, UniProt P00533, DEL746-750); experiment: HotSpot radiometric kinase assay, inhibition of EGFR 746-750 mutant; assay type: biochemical; conditions: 33P ATP, room temperature, 120 m
Protocol: as §1, §2

[3] = biological target: EGFR (D746-750/C797S) (Homo sapiens, UniProt P00533, C797S/DEL746-750); experiment: HotSpot radiometric kinase assay, inhibition of EGFR 746-750/C797S mutant; assay type: biochemical; conditions: 33P ATP, room temperature, 120 m
Sequence of EGFR (D746-750/C797S) (P00533 with tags, fused parts or gaps DEL746-750/C797S): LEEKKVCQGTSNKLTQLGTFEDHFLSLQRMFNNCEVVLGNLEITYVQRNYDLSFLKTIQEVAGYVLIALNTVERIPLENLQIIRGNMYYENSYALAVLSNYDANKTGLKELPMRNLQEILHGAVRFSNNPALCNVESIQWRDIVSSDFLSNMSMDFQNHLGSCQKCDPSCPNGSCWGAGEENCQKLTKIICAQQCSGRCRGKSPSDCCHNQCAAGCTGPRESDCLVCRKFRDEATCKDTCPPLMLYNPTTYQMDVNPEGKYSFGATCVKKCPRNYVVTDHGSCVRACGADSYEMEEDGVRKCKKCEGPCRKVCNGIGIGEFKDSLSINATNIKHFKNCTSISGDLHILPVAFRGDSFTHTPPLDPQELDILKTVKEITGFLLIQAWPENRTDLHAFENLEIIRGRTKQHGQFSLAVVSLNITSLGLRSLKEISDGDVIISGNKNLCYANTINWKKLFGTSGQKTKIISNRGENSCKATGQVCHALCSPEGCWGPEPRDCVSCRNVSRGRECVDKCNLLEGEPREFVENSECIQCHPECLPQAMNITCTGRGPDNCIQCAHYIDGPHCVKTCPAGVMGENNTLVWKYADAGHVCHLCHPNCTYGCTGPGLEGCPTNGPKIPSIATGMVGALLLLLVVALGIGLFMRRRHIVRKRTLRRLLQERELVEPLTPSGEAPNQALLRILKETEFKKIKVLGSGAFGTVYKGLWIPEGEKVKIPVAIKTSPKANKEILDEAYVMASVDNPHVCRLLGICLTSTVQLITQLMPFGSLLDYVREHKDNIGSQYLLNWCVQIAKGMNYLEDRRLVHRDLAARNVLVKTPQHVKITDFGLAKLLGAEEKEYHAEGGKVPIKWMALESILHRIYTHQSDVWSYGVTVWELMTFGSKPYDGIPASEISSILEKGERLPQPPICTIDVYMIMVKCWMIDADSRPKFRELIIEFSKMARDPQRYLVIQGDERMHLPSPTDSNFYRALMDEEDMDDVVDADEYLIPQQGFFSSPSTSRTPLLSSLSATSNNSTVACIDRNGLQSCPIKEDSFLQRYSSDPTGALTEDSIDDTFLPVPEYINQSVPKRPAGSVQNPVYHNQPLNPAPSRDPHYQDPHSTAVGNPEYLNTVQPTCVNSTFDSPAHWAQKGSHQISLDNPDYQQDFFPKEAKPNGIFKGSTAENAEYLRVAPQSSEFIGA
Protocol: as §1, §2

[4] = biological target: EGFR (D770_N771insNPG) (Homo sapiens, UniProt P00533, INS770NPG); experiment: HotSpot radiometric kinase assay, inhibition of EGFR (D770_N771insNPG) mutant; assay type: biochemical; conditions: 33P ATP, room temperature, 120 m
Sequence of EGFR (D770_N771insNPG) (P00533 with tags, fused parts or gaps INS770NPG limits assumed): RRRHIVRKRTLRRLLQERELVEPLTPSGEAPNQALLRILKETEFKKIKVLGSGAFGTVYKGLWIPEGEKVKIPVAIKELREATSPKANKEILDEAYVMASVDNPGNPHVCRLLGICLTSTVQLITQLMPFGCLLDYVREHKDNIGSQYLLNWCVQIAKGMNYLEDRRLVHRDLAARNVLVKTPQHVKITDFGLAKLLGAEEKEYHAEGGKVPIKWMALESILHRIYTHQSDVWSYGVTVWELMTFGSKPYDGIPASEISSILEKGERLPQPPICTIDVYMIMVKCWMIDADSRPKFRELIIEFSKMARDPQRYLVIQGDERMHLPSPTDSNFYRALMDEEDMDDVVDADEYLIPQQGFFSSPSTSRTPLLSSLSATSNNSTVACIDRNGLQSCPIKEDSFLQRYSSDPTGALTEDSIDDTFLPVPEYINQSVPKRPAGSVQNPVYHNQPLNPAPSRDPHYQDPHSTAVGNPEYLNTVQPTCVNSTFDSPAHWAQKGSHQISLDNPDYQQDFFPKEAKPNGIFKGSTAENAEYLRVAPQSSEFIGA
Protocol: as §1, §2

[5] = system: PC-9 cells; experiment: 5-Day CellTiter Glo (CTG) cell proliferation assay, PC-9; assay type: cell-based; conditions: Homo sapiens; PC-9 cells (d746-750 EGFR), 5-day CTG proliferation, 120 hours; read-out: PC-9 IC50
Protocol: (§3) 5-Day CellTiter Glo (CTG) Cell Proliferation Assays (PC9, H1975, H827)
(§4) Cell proliferation assays were carried out in NSCLC cells with EGFR activation mutations. Both PC-9 cells and HCC827 cells (purchased from DSMZ) carry a Glu746-Ala750 deletion (d746-750) mutation in exon 19 of the EGFR gene and NCI-H1975 cells carry both L858R activation mutation and T790M gatekeeper mutation in the EGFR gene. One thousand PC-9, NCI-H1975 or HCC827 cells/100 μL per well were seeded in 96-well black plate with transparent bottom and then treated with indicated compounds in a 9-dose dilution series dispensed using TECAN d300e liquid dispenser. Cells were incubated with compounds for 120 hours at 37° C. and 5% CO2. Cell proliferation was measured using CellTiter-Glo 2.0 luciferase-based ATP detection assay (Promega, Madison, WI) at […] per well following the manufacturer's protocol. Plates were then read on a TECAN Sparks multimode microplate reader. Data was analyzed using GraphPad Prism 9 (GraphPad Software, San Diego, CA) to obtain IC50 values.

[6] = system: NCI-H1975 cells; experiment: 5-Day CellTiter Glo (CTG) cell proliferation assay, NCI-H1975; assay type: cell-based; conditions: Homo sapiens; NCI-H1975 cells (L858R/T790M EGFR), 5-day CTG proliferation, 120 hours; read-out: H1975 IC50
Protocol: as §3, §4

[7] = system: HCC827 cells; experiment: 5-Day CellTiter Glo (CTG) cell proliferation assay, HCC827; assay type: cell-based; conditions: Homo sapiens; HCC827 cells (d746-750 EGFR), 5-day CTG proliferation, 120 hours; read-out: HCC827 IC50
Protocol: as §3, §4

[8] = biological target: T1, pEGFR, PC-9 cells (d746-750 EGFR) (Homo sapiens, UniProt P00533, DEL746-750); experiment: Cellular EGFR phosphorylation assay (LANCE Ultra TR-FRET) in PC-9 cells; assay type: cell-based; conditions: 4 hours at 37° C., read-out: PC-9 pEGFR IC50
T1 construct: pEGFR (Tyr1068) TR-FRET
Protocol: (§5) Cellular EGFR Phosphorylation Assays
(§6) EGFR phosphorylation assays were conducted in NSCLC cells with EGFR activation mutations. PC-9 cells (purchased from Aldrich-Sigma) carry a Glu746-Ala750 deletion (d746-750) mutation in exon 19 of the EGFR gene and NCI-H1975 cells (purchased from ATCC) carry both L858R activation mutation and T790M gatekeeper mutation in the EGFR gene. A431 cells (purchased from ATCC) with amplification of wildtype EGFR, derived from epidermoid carcinoma, were used to measure the activity against wildtype EGFR. All cells were seeded in 96-well plates. For PC-9 and NCI-H1975 cells, 50 thousand cells were seeded per well. For A431 cells, 30 thousand cells were seeded per well. The next day, cells were exposed to compound for 4 hours at 37° C. and 5% CO2. Compounds were diluted in DMSO and added to cells in a 9-dose, 3-fold dilution, titration curve using TECAN d300e liquid dispenser. For A431 cells, 40 ng/mL of EGF was added to the media for the final 10 minutes of incubation. EGFR phosphorylation was measured using phospho-EGFR (Try1068) LANCE Ultra TR-FRET Detection Kit (TRF4015M) from PerkinElmer according to manufacturer's instructions. In brief, cells were lysed with 40 μL of lysis buffer plus 1× Halt protease and phosphatase inhibitor cocktail (Thermo 78441) and by incubation at room temperature for 1 h on a microplate shaker (350 rpm). 15 μ L of cell lysate was transferred to 384-well white plate and 5 μL of Europium- and ULight-labeled antibodies diluted in 1× detection buffer was added to each well. After 4-6 hours of incubation at room temperature, plates were then read on a TECAN Sparks multimode microplate reader. Data was analyzed using GraphPad Prism 9 (GraphPad Software, San Diego, CA) to obtain IC50 values.

[9] = biological target: T2, pEGFR, NCI-H1975 cells (L858R/T790M EGFR) (Homo sapiens, UniProt P00533, L858R/T790M); experiment: Cellular EGFR phosphorylation assay (LANCE Ultra TR-FRET) in NCI-H1975 cells; assay type: cell-based; conditions: 4 hours at 37° C., read-out: H1975 pEGFR IC50
T2 construct: pEGFR (Tyr1068) TR-FRET
Protocol: as §5, §6

[10] = biological target: T3, pEGFR, A431 cells (wildtype EGFR) (Homo sapiens, UniProt P00533); experiment: Cellular EGFR phosphorylation assay (LANCE Ultra TR-FRET) in A431 cells; assay type: cell-based; conditions: 4 hours at 37° C., 40 ng/mL EGF for the final 10 minutes, read-out: A431 pEGFR IC50
T3 construct: pEGFR (Tyr1068) TR-FRET
T3 sequence (P00533 25-1210): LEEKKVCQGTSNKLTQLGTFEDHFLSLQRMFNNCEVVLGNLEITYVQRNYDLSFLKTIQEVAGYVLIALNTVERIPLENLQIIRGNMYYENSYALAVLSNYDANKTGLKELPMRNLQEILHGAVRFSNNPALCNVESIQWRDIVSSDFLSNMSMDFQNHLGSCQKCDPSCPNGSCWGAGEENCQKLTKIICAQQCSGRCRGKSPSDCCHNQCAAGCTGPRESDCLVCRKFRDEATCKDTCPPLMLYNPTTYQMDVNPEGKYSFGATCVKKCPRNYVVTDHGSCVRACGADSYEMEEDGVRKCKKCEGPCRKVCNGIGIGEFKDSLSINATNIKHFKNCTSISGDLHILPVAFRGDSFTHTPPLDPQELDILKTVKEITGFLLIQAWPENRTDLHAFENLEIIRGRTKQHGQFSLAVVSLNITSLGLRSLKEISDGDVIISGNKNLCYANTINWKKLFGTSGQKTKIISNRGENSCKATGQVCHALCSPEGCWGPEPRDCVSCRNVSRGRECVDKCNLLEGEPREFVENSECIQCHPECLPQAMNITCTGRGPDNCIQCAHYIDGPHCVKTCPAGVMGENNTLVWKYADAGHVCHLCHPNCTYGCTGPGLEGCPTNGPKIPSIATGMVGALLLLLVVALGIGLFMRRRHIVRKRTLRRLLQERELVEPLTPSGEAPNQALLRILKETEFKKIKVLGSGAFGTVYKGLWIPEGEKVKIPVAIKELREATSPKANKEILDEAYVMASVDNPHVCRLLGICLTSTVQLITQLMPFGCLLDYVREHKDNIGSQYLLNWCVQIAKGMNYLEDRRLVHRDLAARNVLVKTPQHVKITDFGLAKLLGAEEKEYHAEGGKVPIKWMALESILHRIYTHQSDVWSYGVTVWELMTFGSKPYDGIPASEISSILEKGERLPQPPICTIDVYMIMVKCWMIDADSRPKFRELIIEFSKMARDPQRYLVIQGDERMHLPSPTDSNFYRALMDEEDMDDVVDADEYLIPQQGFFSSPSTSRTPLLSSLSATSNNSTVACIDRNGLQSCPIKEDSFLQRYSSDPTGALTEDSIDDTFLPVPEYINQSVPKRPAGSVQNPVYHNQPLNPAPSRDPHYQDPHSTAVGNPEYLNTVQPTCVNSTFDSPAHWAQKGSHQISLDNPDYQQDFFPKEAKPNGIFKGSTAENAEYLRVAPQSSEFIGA
Protocol: as §5, §6

Sequence of EGFR (L858R/T790M/C797S) (P00533 25-1210 T790M/C797S/L858R): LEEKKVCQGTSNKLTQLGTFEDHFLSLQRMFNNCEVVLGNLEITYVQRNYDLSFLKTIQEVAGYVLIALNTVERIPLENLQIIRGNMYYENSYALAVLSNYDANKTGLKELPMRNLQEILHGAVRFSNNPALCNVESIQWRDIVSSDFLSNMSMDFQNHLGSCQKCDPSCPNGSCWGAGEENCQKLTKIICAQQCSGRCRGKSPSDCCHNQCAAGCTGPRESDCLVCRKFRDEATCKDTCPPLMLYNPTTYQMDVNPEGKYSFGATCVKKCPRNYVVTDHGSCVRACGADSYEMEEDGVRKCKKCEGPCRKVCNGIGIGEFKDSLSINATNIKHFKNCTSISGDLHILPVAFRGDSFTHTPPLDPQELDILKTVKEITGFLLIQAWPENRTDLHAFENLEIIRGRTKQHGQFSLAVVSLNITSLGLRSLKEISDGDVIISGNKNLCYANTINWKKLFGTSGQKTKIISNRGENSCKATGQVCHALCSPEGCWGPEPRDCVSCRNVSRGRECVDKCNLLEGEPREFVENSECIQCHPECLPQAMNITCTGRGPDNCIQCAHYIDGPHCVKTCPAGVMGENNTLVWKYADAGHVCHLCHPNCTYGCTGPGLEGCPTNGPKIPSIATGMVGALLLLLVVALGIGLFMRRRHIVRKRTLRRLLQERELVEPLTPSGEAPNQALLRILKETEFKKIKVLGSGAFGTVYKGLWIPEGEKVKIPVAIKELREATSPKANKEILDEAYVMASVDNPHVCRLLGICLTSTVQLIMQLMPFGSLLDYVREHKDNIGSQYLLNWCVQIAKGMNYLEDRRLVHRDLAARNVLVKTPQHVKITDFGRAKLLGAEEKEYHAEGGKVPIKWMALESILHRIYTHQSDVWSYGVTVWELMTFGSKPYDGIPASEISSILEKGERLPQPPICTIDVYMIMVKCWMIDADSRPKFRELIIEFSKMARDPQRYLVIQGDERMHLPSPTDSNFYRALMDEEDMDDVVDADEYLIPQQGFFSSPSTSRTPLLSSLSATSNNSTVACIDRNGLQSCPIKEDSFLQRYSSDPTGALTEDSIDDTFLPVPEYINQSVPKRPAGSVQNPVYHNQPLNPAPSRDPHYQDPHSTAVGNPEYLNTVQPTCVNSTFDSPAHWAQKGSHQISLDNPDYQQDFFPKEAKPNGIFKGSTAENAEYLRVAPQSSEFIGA

Row | SMILES | IC50 [1] [nM] | IC50 [2] [nM] | IC50 [3] [nM] | IC50 [4] [nM] | IC50 [5] [nM] | IC50 [6] [nM] | IC50 [7] [nM] | IC50 [8] [nM] | IC50 [9] [nM] | IC50 [10] [nM]
1 | CCOc1nn(CCO)c2c1/C=C/c1n[nH]c3cnc(cc13)-c1cnn(C)c1O[C@@H](C)CN(CC)C2 [Ex. 34, 2-[(10S,17E)-16-ethoxy-12-ethyl-8,10-dimethyl-2,8,10,11,12,13-hexahydro-14H-5,3-(azenometheno)tripyrazolo[3,4-f:3′,4′-j:4″,3″-n][1,4]oxazacyclopentadecin-14-yl]ethan-1-ol] | 0.28 | 0.12 | 0.31 | 0.11 | 4.22 | 1.75 | 0.39 | – | – | –
2 | CCN1Cc2c(c(OCC#N)nn2[C@@H](C)CO)/C=C/c2n[nH]c3cnc(cc23)-c2c(C)nn(C)c2O[C@H](C)C1 [Ex. 58, {[(10R,17E)-12-ethyl-14-[(2S)-1-hydroxypropan-2-yl]-6,8,10-trimethyl-2,10,11,12,13,14-hexahydro-8H-5,3-(azenometheno)tripyrazolo[3,4-f:3′,4′-j:4″,3″-n][1,4]oxazacyclopentadecin-16-yl]oxy}acetonitrile] | 1.01 | 0.55 | 1.38 | 0.72 | 2.44 | 14.7 | 0.75 | 1.11 | 2.34 | 21.5
3 | CCc1nn(CCO)c2c1/C=C/c1n[nH]c3cnc(cc13)-c1c(C)nn(C)c1O[C@@H](C)CN(C)C2 [Ex. 60] | 0.86 | 0.54 | 1.72 | 0.78 | 5.05 | 57.5 | 1.77 | 2.39 | 2.49 | 29
4 | CCc1nn([C@@H](C)CO)c2c1/C=C/c1n[nH]c3cnc(cc13)-c1c(C)nn(C)c1O[C@@H](C)CN(C)C2 [Ex. 61, (2S)-2-[(10S,17E)-16-ethyl-6,8,10,12-tetramethyl-2,8,10,11,12,13-hexahydro-14H-5,3-(azenometheno)tripyrazolo[3,4-f:3′,4′-j:4″,3″-n][1,4]oxazacyclopentadecin-14-yl]propan-1-ol] | 0.91 | 0.43 | 1.05 | 0.7 | 3.55 | 74.7 | 0.66 | 1.68 | 2.05 | 21
5 | CCc1nn(CCO)c2c1/C=C/c1n[nH]c3cnc(cc13)-c1c(C)nn(C)c1O[C@@H](C)CN(CC)C2 [Ex. 62, 2-[(10S,17E)-12,16-diethyl-6,8,10-trimethyl-2,8,10,11,12,13-hexahydro-14H-5,3-(azenometheno)tripyrazolo[3,4-f:3′,4′-j:4″,3″-n][1,4]oxazacyclopentadecin-14-yl]ethan-1-ol] | 0.74 | 0.42 | 1.58 | 0.42 | 1.08 | 16.9 | 0.44 | 1.13 | 1.54 | 13.2
6 | Cc1nn(C)c2c1-c1cc3c(n[nH]c3c(C)n1)/C=C/c1c(OCC#N)nn(CCO)c1CN(C)C[C@H](C)O2 [Ex. 63, {[(10S,17E)-14-(2-hydroxyethyl)-6,8,10,12,20-pentamethyl-2,10,11,12,13,14-hexahydro-8H-5,3-(azenometheno)tripyrazolo[3,4-f:3,4′-j:4″,3″-n][1,4]oxazacyclopentadecin-16-yl]oxy}acetonitrile] | 0.6 | 0.36 | 1.09 | 0.39 | 13.8 | 9.62 | 2.7 | 2.38 | 3.31 | 57.3
7 | Cc1nn(C)c2c1-c1cc3c(n[nH]c3cn1)/C=C/c1c(OCC#N)nn([C@@H](C)CO)c1CN1CCC[C@@H]1CO2 [Ex. 64, {[(8aR,19E)-3-[(2S)-1-hydroxypropan-2-yl]-11,13-dimethyl-3,4,7,8,8a,9,11,17-octahydro-6H-14,16-(azenometheno)tripyrazolo[3,4-f:3′,4′-j:4″,3″-n]pyrrolo[2,1-c][1,4]oxazacyclopentadecin-1-yl]oxy}acetonitrile] | 0.82 | 0.41 | 1.2 | 0.42 | 5.63 | 26.6 | 1.02 | 2.74 | 2.79 | 29.6
8 | CCOc1nn([C@@H](C)CO)c2c1/C=C/c1n[nH]c3cnc(cc13)-c1c(C)nn(C)c1OC[C@H]1CCCN1C2 [Ex. 65, (2S)-2-[(8aR,19E)-1-ethoxy-11,13-dimethyl-7,8,8a,9,11,17-hexahydro-6H-14,16-(azenometheno)tripyrazolo[3,4-f:3′,4′-j:4″,3″-n]pyrrolo[2,1-c][1,4]oxazacyclopentadecin-3(4H)-yl]propan-1-ol] | 1.58 | 0.61 | 1.61 | 0.99 | 1.6 | 5.36 | 0.63 | 1.11 | 1.56 | 15.8
